# In publication PMC4712559, “Isolation and characterization of Bradykinin potentiating peptides from Agkistrodon bilineatus venom” (Proteome Science, 2016):
# Where a SMILES comes first, the peptide text is derived from it.
# Target: T1, Angiotensin converting enzyme from rabbit lung (Oryctolagus cuniculus, UniProt P12822)
# T1 construct: Angiotensin converting enzyme from rabbit lung (A6778- 0.25 UN), was obtained from Sigma; purchased Sigma A6778; host or cells: rabbit lung tissue
# T1 sequence (P12822 34-1310): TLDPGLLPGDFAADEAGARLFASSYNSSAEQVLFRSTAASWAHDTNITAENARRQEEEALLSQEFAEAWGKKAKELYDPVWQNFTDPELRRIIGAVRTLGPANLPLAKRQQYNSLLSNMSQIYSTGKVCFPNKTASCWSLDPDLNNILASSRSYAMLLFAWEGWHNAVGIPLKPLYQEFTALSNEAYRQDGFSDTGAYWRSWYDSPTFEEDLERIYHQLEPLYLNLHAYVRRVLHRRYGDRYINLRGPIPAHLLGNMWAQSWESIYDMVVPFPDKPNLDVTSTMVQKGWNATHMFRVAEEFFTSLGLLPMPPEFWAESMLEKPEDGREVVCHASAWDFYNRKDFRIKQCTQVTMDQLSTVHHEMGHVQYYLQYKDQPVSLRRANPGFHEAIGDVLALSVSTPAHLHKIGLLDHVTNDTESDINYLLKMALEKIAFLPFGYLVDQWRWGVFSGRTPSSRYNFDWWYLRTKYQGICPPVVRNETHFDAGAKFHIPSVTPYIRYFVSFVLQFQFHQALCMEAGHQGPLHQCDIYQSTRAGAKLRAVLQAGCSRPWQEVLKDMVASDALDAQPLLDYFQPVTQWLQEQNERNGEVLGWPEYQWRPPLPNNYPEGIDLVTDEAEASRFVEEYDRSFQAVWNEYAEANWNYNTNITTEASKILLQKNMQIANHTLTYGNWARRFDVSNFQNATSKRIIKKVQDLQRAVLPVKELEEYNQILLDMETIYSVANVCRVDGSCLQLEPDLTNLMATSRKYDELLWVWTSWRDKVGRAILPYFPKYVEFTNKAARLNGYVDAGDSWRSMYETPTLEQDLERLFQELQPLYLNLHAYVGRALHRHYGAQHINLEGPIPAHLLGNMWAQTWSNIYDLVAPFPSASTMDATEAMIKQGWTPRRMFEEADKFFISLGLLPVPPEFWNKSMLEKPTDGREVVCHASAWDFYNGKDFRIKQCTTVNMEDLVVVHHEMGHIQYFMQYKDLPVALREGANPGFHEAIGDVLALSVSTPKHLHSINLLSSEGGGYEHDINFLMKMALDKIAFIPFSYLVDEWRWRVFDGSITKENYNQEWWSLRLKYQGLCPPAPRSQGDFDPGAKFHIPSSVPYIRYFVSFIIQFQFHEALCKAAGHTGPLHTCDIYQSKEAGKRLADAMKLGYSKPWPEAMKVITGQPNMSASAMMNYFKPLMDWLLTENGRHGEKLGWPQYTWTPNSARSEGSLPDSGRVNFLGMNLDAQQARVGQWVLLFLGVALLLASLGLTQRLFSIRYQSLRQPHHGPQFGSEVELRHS
# Experiment: ACE inhibition by synthetic BPPs, fluorescence energy transfer assay with Abz-Phe-Arg-Lys(Dnp)-Pro-OH
# Assay type: biochemical
# Details: for ACE inhibition / IC 50, in words: qualitative comparison of the four synthesized peptides; for IC50: rabbit lung ACE, FRET substrate Abz-Phe-Arg-Lys(Dnp)-Pro-OH, Tris/NaCl/ZnCl2 buffer, pH 7.0, 10 min incubation at room temperature, λex 320 nm, λem 420 nm, 5 min, six serial dilutions 0.500-0.002 mM, 5 μl of dilution in assay, repeated five times
# Description: The snake venom of Agkistrodon bilineatus bilineatus, was obtained from Venom Supplies, Australia, and was placed at -20° till further use. The venom was collected from the snakes bred in the farms of Venom Supplies, Australia. All the solvents used were of HPLC grade and were obtained from Merck. The substrate Abz-Phe-Arg-Lys (Dnp)-Pro-OH for angiotensin converting enzyme was obtained from BACHEM. Angiotensin converting enzyme from rabbit lung (A6778- 0.25 UN), was obtained from Sigma. The synthesized peptides ZLWPRPQIPP, ZQWAQGRAPHPP, ZSAPGNEAIPP, ZNWPHPQIPP were purchased from China Peptide company, Shanghai, China. The peptides were 95 % pure, and were kept at -20° till use. The N-terminus of these synthetic peptide is pyroglutame (represented by Z), while the C-terminus is an amino acid with free carboxylic group.
# ACE activities in the presence of venom peptides were determined by a fluorescence energy transfer assay using Abz-Phe-Arg-Lys (Dnp)-Pro-OH as a substrate. 1 mg of the substrate was weighed and dissolved in 1 ml DMSO. The exact concentration of the substrate was determined by taking four different volumes of the substrate stock solution, and constructing a standard curve spectrophometrically at 365 nm, using the molar extinction coefficient of the Dnp group ([…] = 17,300 M^−1 cm^−1), according to the Beer’s Lambert Law (A = εDnp x l x c). A stock solution of the enzyme was prepared by suspending 0.25 UN of ACE in 250 μl of the assay buffer (12.10 g Tris-base, 2.92 g NaCl and 1.36 mg ZnCl2 in 1 l of deionised water, pH to 7.0 adjusted with HCl).
# In order to determine the IC 50 values of the synthesized peptides, a stock solution (10 mM) of each was prepared in the assay buffer. From the stock solutions, six serial dilutions were prepared for each peptide. The concentrations of the six dilutions were as follows, 0.500 mM, 0.167 mM, 0.056 mM, 0.019 mM, 0.006 mM and 0.002 mM respectively. In the final assay, 85 μl of the assay buffer, 2 μl of the enzyme stock solution, and 5 μl of the dilute peptide solution were added. The mixture was incubated for 10 min at room temperature. The reaction was started by adding 10 μl of the working solution of the substrate (20 μl of the stock +280 μl of the assay buffer). The same procedure was adopted using 5 μl of venom fractions instead of the synthetic peptides. Fluorescence measurements were made at λex = 320 nm and at λem = 420 nm, for 5 min each. These experiments were repeated five times to ensure accuracy of the results.
smiles,measurement,setting,value
C[C@H](NC(=O)[C@H](Cc1c[nH]c2ccccc12)NC(=O)[C@H](CCC(N)=O)NC(=O)[C@@H]1CCC(=O)N1)C(=O)N[C@@H](CCC(N)=O)C(=O)NCC(=O)N[C@@H](CCCNC(=N)N)C(=O)N[C@@H](C)C(=O)N1CCC[C@H]1C(=O)N[C@@H](Cc1c[nH]cn1)C(=O)N1CCC[C@H]1C(=O)N1CCC[C@H]1C(=O)O [Inhibitor 2 (P7)] (HELM PEPTIDE1{[Glp].Q.W.A.Q.G.R.A.P.H.P.P}$$$$V2.0),"ACE inhibition / IC 50, in words",listed as ZQWAQGRAPHPP,low IC 50 value
same,"ACE inhibition / IC 50, in words",listed as peptide 7,low IC 50 values
same,IC50,,3.63 µM
CC[C@H](C)[C@H](NC(=O)[C@H](CCC(N)=O)NC(=O)[C@@H]1CCCN1C(=O)[C@H](CCCNC(=N)N)NC(=O)[C@@H]1CCCN1C(=O)[C@H](Cc1c[nH]c2ccccc12)NC(=O)[C@H](CC(C)C)NC(=O)[C@@H]1CCC(=O)N1)C(=O)N1CCC[C@H]1C(=O)N1CCC[C@H]1C(=O)O [Inhibitor 1 (P6)] (HELM PEPTIDE1{[Glp].L.W.P.R.P.Q.I.P.P}$$$$V2.0),"ACE inhibition / IC 50, in words",listed as ZLWPRPQXPP,strongest inhibitors
same,"ACE inhibition / IC 50, in words",listed as peptide 6,low IC 50 values
same,IC50,,0.64 µM
CC[C@H](C)[C@H](NC(=O)[C@H](CCC(N)=O)NC(=O)[C@@H]1CCCN1C(=O)[C@H](Cc1c[nH]cn1)NC(=O)[C@@H]1CCCN1C(=O)[C@H](Cc1c[nH]c2ccccc12)NC(=O)[C@H](CC(N)=O)NC(=O)[C@@H]1CCC(=O)N1)C(=O)N1CCC[C@H]1C(=O)N1CCC[C@H]1C(=O)O [Inhibitor 4 (P3)] (HELM PEPTIDE1{[Glp].N.W.P.H.P.Q.I.P.P}$$$$V2.0),"ACE inhibition / IC 50, in words",listed as ZNWPHPQXPP,strongest inhibitors
same,"ACE inhibition / IC 50, in words",listed as peptide 5,low IC 50 values
same,IC50,,0.76 µM
CC[C@H](C)[C@H](NC(=O)[C@H](C)NC(=O)[C@H](CCC(=O)O)NC(=O)[C@H](CC(N)=O)NC(=O)CNC(=O)[C@@H]1CCCN1C(=O)[C@H](C)NC(=O)[C@H](CO)NC(=O)[C@@H]1CCC(=O)N1)C(=O)N1CCC[C@H]1C(=O)N1CCC[C@H]1C(=O)O [Inhibitor 3 (P5)] (HELM PEPTIDE1{[Glp].S.A.P.G.N.E.A.I.P.P}$$$$V2.0),"ACE inhibition / IC 50, in words",,much higher value
same,IC50,,30 µM
